# Patent US11873291B2, “Quinoline cGAS antagonist compounds” (ImmuneSensor Therapeutics, Inc., priority 2020, dated 2024)
# Molecular target: T1, recombinant human cGAS (aa147-522) (Homo sapiens, UniProt Q8N884)
# T1 construct: recombinant human cGAS (aa147-522); His6-SUMO (cleaved yes); made in house; host or cells: E. coli BL21/pLys
# Experiment: In vitro inhibition assay of cGAS activity (ATP consumption, KinaseGlo Max)
# Assay type: biochemical
# Conditions: Table 2, read-out: cGAS Inhibition Results IC50
# Procedure, shortened: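 De-tagged recombinant human cGAS (aa147-522, 1.5 μg/mL) was incubated 20 min at 37 °C with herring testis DNA, 6.6 μM ATP and 0.1 mM GTP in Tris pH 7.5/MgCl2 buffer plus serial compound dilutions. Remaining ATP was read by KinaseGlo Max luminescence, and IC50 was fitted from % ATP consumption versus log concentration.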
# T1 sequence (Q8N884 147-522): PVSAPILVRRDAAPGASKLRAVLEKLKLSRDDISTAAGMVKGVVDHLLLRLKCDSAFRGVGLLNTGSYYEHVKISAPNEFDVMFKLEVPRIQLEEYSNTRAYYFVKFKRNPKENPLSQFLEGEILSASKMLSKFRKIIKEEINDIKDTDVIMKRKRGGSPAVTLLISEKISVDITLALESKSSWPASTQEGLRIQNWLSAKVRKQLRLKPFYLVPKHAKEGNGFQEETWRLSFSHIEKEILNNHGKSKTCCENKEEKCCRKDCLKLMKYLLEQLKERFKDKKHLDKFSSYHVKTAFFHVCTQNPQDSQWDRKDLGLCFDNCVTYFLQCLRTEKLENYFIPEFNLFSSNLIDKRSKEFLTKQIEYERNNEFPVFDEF
row,Compound,IC50
1,CC(C)(C)c1cc(C(=O)O)cc(-c2cc(-n3ccnc3)c3ccc(Cl)cc3n2)c1 [I-25],> 30 µM
2,O=C(O)CNC(=O)[C@H]1CN(c2cc(-c3cn[nH]c3)c3ccc(Cl)c(Cl)c3n2)CCO1 [I-343],2 to 30 µM
3,OC[C@H]1CCCN1c1cc(-n2ccnc2)c2ccc(Cl)c(Cl)c2n1 [I-141],< 2 µM
4,O=C(NCCO)[C@@H]1CCCN1c1cc(-n2ccnc2)c2ccc(Cl)c(Cl)c2n1 [I-452],2 to 30 µM
5,"NC(=O)NC1CCCN(c2cc(-n3ccnc3)c3ccc(Cl)cc3n2)C1 (stereo not shown) [I-104, 1-(1-(7-chloro-4-(1H-imidazol-1-yl)quinolin-2-yl)piperidin-3-yl)urea]",2 to 30 µM
6,O=S(=O)(NC1CCCN(c2cc(-n3ccnc3)c3ccc(Cl)cc3n2)C1)c1cccnc1 (stereo not shown) [I-102],2 to 30 µM
7,"CS(=O)(=O)N(CCCc1cc(-c2cn[nH]c2)c2ccc(Cl)c(Cl)c2n1)CC(=O)O [I-337, N-(3-(7,8-dichloro-4-(1H-pyrazol-4-yl)quinolin-2-yl)propyl)-N-(methylsulfonyl) glycine]",< 2 µM
8,O=C(O)c1cc2c(c(-c3cc(-n4ccnc4)c4ccc(Cl)cc4n3)c1)OCO2 [I-37],> 30 µM
9,O=C(O)C1CCCN(c2cc(-n3ccnc3)c3ccc(Cl)cc3n2)CC1 (stereo not shown) [I-363],2 to 30 µM
10,O=S1(=O)CCN(c2cc(-n3ccnc3)c3ccc(Cl)c(Cl)c3n2)CC1 [I-87],2 to 30 µM
11,O=C(O)C1CCCC(Nc2cc(-n3ccnc3)c3ccc(Cl)cc3n2)C1 (stereo not shown) [I-366],2 to 30 µM
12,OC1CCN(c2cc(-n3ccnc3)c3ccc(Cl)c(Cl)c3n2)CC1 [I-132],2 to 30 µM
13,COc1ccc(C(=O)O)cc1-c1cc(-n2ccnc2)c2ccc(Cl)cc2n1 [I-30],2 to 30 µM
14,OCC1CN(c2cc(-n3ccnc3)c3ccc(Cl)c(Cl)c3n2)CCO1 (stereo not shown) [I-98],2 to 30 µM
15,Cc1cc(NCC(N)=O)c2ccc(Cl)c(Cl)c2n1 [I-313],> 30 µM
16,Clc1ccc2c(-c3cc[nH]c3)cc(-c3ccccc3)nc2c1 [I-72],> 30 µM
17,"CS(=O)(=O)Nc1cccc(-c2cc(-n3ccnc3)c3ccc(Cl)cc3n2)c1 [I-10, N-(3-(7-chloro-4-(1H-imidazol-1-yl)quinolin-2-yl)phenyl)methanesulfonamide]",2 to 30 µM
18,O=C1CN(c2cc(-n3ccnc3)c3ccc(Cl)c(Cl)c3n2)CC(C(=O)O)N1 (stereo not shown) [I-334],> 30 µM
19,Cc1nccn1-c1ccnc2ccccc12 [I-411],> 30 µM
20,"Cc1cc(-c2cn[nH]c2)c2ccc(Cl)c(Cl)c2n1 [I-406, 7,8-dichloro-2-methyl-4-(1H-pyrazol-4-yl)quinoline]",2 to 30 µM
21,O=C(O)C(Cc1ccc(O)cc1)Nc1cc(-n2ccnc2)c2ccc(Cl)c(Cl)c2n1 (stereo not shown) [I-169],< 2 µM

row,Compound,IC50
1,"O=C1NC(=O)/C(=C\CCc2cc(-c3cn[nH]c3)c3ccc(Cl)c(Cl)c3n2)S1 [I-274, (E)-5-(3-(7,8-Dichloro-4-(1H-pyrazol-4-yl)quinolin-2-yl)propylidene)thiazolidine-2,4-dione]",2 to 30 µM
2,CN(CCNS(=O)(=O)c1ccc(C(F)(F)F)cc1)c1cc(-n2ccnc2)c2ccc(Cl)cc2n1 [I-394],> 30 µM
3,"O=C(O)c1cc(-c2cc(-n3ccnc3)c3ccc(Cl)cc3n2)ccc1OCCO [I-21, 5-(7-chloro-4-(1H-imidazol-1-yl)quinolin-2-yl)-2-(2-hydroxyethoxy)benzoic acid]",< 2 µM
4,OC[C@@H]1C[C@@H](O)CN1c1cc(-n2ccnc2)c2ccc(Cl)c(Cl)c2n1 [I-142],< 2 µM
5,O=C(O)CCNC(=O)[C@@H]1CN(c2cc(-c3cn[nH]c3)c3ccc(Cl)c(Cl)c3n2)CCO1 [I-342],< 2 µM
6,Clc1ccc2c(-c3cn[nH]c3)cc(-c3ccccc3)nc2c1 [I-67],2 to 30 µM
7,OCCNc1cc(-n2ccnc2)c2ccc(Cl)c(Cl)c2n1 [I-239],< 2 µM
8,CN(CCC(N)=O)c1cc(-c2cn[nH]c2)c2ccc(Cl)c(Cl)c2n1 [I-191],< 2 µM
9,COC(=O)c1ccc(-c2cc(-n3ccnc3)c3ccc(Cl)cc3n2)cc1 [I-3],> 30 µM
10,O=C(O)C1CCCN(c2cc(-n3ccnc3)c3ccc(Cl)cc3n2)C1 (stereo not shown) [I-122],2 to 30 µM
11,O=S(=O)(O)CCNc1cc(-n2ccnc2)c2ccc(Cl)c(Cl)c2n1 [I-158],< 2 µM
12,O=C(O)CNC(=O)[C@@H]1CCCN1c1cc(-n2ccnc2)c2ccc(Cl)c(Cl)c2n1 [I-323],< 2 µM
13,NS(=O)(=O)CCNc1ccc2ccc(Cl)c(Cl)c2n1 [I-296],> 30 µM
14,CCOC(=O)C1CCN(c2cc(-n3ccnc3)c3ccc(Cl)cc3n2)C1 (stereo not shown) [I-447],> 30 µM
15,Brc1ccc2c(-n3ccnn3)ccnc2c1 [I-420],> 30 µM
16,"O=C(O)/C=C/c1cc(-c2cn[nH]c2)c2ccc(Cl)c(Cl)c2n1 [I-423, 3-(7,8-dichloro-4-(1H-pyrazol-4-yl)quinolin-2-yl)acrylic acid]",< 2 µM
17,"O=C(O)CCc1cc(-c2cn[nH]c2)c2ccc(Cl)c(Cl)c2n1 [I-270, 3-(7,8-dichloro-4-(1H-pyrazol-4-yl)quinolin-2-yl)propanoic acid]",< 2 µM
18,"CN(CCNS(N)(=O)=O)c1cc(-n2ccnc2)c2ccc(Cl)c(Cl)c2n1 [I-223, N-(2-((7,8-dichloro-4-(1H-imidazol-1-yl)quinolin-2-yl)(methyl)amino)ethyl)aminosulfonamide]",< 2 µM
19,O=C(O)[C@@H]1C[C@H](Oc2ccccc2)CN1c1cc(-c2cn[nH]c2)c2ccc(Cl)c(Cl)c2n1 [I-360],< 2 µM
20,Clc1ccc2c(-c3cccnc3)cc(-c3ccccc3)nc2c1 [I-69],> 30 µM

# Same assay, conditions: Table 3, read-out: cGAS Inhibition Results IC50
row,Compound,IC50
1,O=C(O)[C@H]1[C@@H](O)CCN1c1cc(-n2ccnc2)c2ccc(Cl)c(Cl)c2n1 [I-499],< 2 µM
2,OC[C@@H]1CCN1c1cc(-n2ccnc2)c2ccc(Cl)c(Cl)c2n1 [I-659],< 2 µM
3,"O=C(O)[C@H](O)[C@@H]1CCCN1c1cc(-n2ccnc2)c2ccc(Cl)c(Cl)c2n1 [I-661, (R)-2-((S)-1-(7,8-dichloro-4-(1H-imidazol-1-yl)quinolin-2-yl)pyrrolidin-2-yl)-2-hydroxyacetic acid]",< 2 µM
4,C[C@@H](NC(=O)CCN(C)c1cc(-n2ccnc2)c2ccc(Cl)c(Cl)c2n1)C(=O)O [I-563],< 2 µM
5,COC(=O)[C@H]1[C@H](O)CCN1c1cc(-n2ccnc2)c2ccc(Cl)c(Cl)c2n1 [I-497],2 to 30 µM
6,CN(CCN1C(=O)c2ccccc2S1(=O)=O)c1cc(-n2ccnc2)c2ccc(Cl)c(Cl)c2n1 [I-621],2 to 30 µM
7,O=C(O)[C@@H]1CN(c2cc(-n3ccnc3)c3ccc(Cl)c(Cl)c3n2)CCO1 [I-521],< 2 µM
8,COC(=O)[C@@H]1CC[C@H](C)N1c1cc(-n2ccnc2)c2ccc(Cl)c(Cl)c2n1 [I-574],2 to 30 µM
9,COc1cccc2c(-c3cn[nH]c3)cc(N3CCC[C@H]3COCCC(=O)O)nc12 [I-859],2 to 30 µM
10,COC(=O)[C@@H]1c2ccccc2CN1c1cc(-n2ccnc2)c2ccc(Cl)c(Cl)c2n1 [I-660],2 to 30 µM
11,COC(=O)[C@@H]1[C@@H](C)CCN1c1cc(-n2ccnc2)c2ccc(Cl)c(Cl)c2n1 [I-590],2 to 30 µM
12,C[C@H](NC(=O)CCN(C)c1cc(-n2ccnc2)c2ccc(Cl)c(Cl)c2n1)C(=O)O [I-565],< 2 µM
13,CC(C)(C)OC(=O)[C@H]1CCCN1C(=O)C[C@@H]1CCCN1c1cc(-n2ccnc2)c2ccc(Cl)c(Cl)c2n1 [I-522],2 to 30 µM
14,COC(=O)[C@@H]1[C@H](OCC(=O)O)CCN1c1cc(-n2ccnc2)c2ccc(Cl)c(Cl)c2n1 [I-648],2 to 30 µM
15,O=C(O)[C@@H]1C[C@H](F)CN1c1cc(-n2ccnc2)c2ccc(Cl)c(Cl)c2n1 [I-466],< 2 µM
16,O=C(O)c1ccc(S(=O)(=O)N[C@@H]2C[C@@H](C(=O)O)N(c3cc(-n4ccnc4)c4ccc(Cl)c(Cl)c4n3)C2)cc1 [I-511],< 2 µM
17,COC(=O)[C@@H]1c2ccccc2CN1c1cc(-n2ccnc2)c2ccc(Cl)c(Cl)c2n1 [I-588],< 2 µM
18,O=C(O)[C@@H]1C[C@@H](N2CCOCC2)CN1c1cc(-n2ccnc2)c2ccc(Cl)c(Cl)c2n1 [I-518],< 2 µM
19,COC(=O)C1N(c2cc(-n3ccnc3)c3ccc(Cl)c(Cl)c3n2)CCC1(C)C (stereo not shown) [I-587],2 to 30 µM
20,O=C(O)CCOC[C@@H]1CCCN1c1ccc2ccc(Cl)c(Cl)c2n1 [I-827],> 30 µM
21,O=C1CC2CCCC(C1)N2c1cc(-n2ccnc2)c2ccc(Cl)c(Cl)c2n1 [I-491],< 2 µM
22,OC1CC2CCC(C1)N2c1cc(-n2ccnc2)c2ccc(Cl)c(Cl)c2n1 (stereo not shown) [I-489],< 2 µM
23,"O=C(O)CNC(=O)O[C@H]1C[C@@H](C(=O)O)N(c2cc(-n3ccnc3)c3ccc(Cl)c(Cl)c3c2)C1 [I-570, (2S,4S)-4-(((carboxymethyl)carbamoyl)oxy)-1-(7,8-dichloro-4-(1H-imidazol-1-yl)naphthalen-2-yl)pyrrolidine-2-carboxylic acid]",2 to 30 µM
24,O=C(O)c1cccc(S(=O)(=O)NC[C@@H]2CCCN2c2cc(-n3ccnc3)c3ccc(Cl)c(Cl)c3n2)c1 [I-638],2 to 30 µM
25,CC(C)(O)[C@@H]1CCCN1c1cc(-n2ccnc2)c2ccc(Cl)c(Cl)c2n1 [I-484],2 to 30 µM
26,CN(CC(=O)NCCC(=O)O)c1cc(-n2ccnc2)c2ccc(Cl)c(Cl)c2n1 [I-562],< 2 µM
27,COC(=O)c1cccn1-c1cc(-n2ccnc2)c2ccc(Cl)c(Cl)c2n1 [I-458],2 to 30 µM
28,"CN(CCC(=O)O)C[C@@H]1CCCN1c1cc(-n2ccnc2)c2ccc(Cl)c(Cl)c2n1 [I-754, (S)-3-(((1-(7,8-dichloro-4-(1H-imidazol-1-yl)quinolin-2-yl)pyrrolidin-2-yl)methyl)(methyl)amino)propanoic acid]",2 to 30 µM
29,"O=C(O)CCOC[C@@H]1CCCN1c1cc(-n2ccnc2)c2ccc(Cl)c(-c3ccccc3)c2n1 [I-863, (S)-3-((1-(7-chloro-4-(1H-imidazol-1-yl)-8-phenylquinolin-2-yl)pyrrolidin-2-yl)methoxy)propanoic acid]",> 30 µM
